Drawing on BindingDB's records for doi:10.1016/j.ejmech.2017.04.013 (Ghent University, 2017), this text covers IC50 for two compounds.

Test [1] has as its target Histone deacetylase 8 (Homo sapiens) (UniProt Q9BY41). The test can be described thus: Inhibition of recombinant human HDAC8 using Boc-Lys (Ac)-AMC substrate by fluorescence assay.
In another test the target is Histone deacetylase 1 (Homo sapiens, UniProt Q13547). The test can be described thus: Inhibition of HDAC1 (unknown origin).
A further test addresses Histone deacetylase 9 (Homo sapiens, UniProt Q9UKV0). Kind of test: ChEBML_1684755.

Histone deacetylase 9, sequence (Q9UKV0 whole entry): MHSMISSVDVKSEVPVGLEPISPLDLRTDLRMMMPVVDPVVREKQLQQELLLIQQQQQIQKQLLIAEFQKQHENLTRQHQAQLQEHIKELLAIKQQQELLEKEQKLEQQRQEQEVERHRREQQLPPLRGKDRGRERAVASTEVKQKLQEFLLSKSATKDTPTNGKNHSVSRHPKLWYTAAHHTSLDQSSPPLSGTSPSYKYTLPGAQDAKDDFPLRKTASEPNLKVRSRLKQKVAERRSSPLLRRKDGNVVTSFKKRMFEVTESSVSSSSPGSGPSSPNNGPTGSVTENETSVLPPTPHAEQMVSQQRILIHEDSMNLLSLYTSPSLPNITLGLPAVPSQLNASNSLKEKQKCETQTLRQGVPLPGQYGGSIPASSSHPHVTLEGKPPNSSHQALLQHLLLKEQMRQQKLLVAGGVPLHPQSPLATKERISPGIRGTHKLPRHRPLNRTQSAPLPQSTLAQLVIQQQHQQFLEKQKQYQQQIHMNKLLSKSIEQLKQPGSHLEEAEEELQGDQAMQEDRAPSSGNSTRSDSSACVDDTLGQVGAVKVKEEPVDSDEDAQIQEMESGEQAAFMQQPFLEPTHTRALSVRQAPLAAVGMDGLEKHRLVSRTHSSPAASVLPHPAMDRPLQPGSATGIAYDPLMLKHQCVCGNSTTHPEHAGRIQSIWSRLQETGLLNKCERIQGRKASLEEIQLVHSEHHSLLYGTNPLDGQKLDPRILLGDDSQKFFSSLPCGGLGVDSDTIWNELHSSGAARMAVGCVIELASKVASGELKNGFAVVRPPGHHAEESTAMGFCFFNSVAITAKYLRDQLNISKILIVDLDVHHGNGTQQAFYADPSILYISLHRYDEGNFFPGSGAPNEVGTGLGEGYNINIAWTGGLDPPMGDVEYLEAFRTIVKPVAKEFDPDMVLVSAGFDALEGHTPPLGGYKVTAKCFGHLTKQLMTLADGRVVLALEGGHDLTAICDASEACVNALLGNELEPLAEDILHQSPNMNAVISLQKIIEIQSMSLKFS
Histone deacetylase 8 (Homo sapiens), sequence (Q9BY41 whole entry, looked up): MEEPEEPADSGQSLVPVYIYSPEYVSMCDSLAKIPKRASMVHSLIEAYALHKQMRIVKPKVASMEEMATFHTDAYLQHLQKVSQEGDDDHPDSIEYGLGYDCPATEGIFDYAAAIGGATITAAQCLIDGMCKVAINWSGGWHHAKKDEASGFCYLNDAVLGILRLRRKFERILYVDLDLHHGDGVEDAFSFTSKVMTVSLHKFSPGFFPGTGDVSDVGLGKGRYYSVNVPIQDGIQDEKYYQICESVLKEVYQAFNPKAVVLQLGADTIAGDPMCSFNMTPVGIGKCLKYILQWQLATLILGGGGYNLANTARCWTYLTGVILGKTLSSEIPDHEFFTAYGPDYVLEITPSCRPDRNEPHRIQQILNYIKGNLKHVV
Histone deacetylase 1, sequence (Q13547 whole entry): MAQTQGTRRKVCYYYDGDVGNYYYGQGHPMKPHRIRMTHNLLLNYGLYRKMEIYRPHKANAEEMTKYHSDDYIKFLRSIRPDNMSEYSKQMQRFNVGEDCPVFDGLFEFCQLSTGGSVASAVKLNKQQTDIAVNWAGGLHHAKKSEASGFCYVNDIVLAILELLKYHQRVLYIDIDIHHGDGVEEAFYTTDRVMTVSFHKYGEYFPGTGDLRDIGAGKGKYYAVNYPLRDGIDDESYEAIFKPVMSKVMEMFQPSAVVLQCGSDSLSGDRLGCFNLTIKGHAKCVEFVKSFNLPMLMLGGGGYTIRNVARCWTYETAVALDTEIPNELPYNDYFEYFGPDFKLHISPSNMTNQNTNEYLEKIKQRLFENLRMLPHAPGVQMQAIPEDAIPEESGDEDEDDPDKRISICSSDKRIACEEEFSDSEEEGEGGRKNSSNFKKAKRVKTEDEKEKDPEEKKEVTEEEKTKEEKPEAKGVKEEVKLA

As to `O=C(NO)c1ccc(Cn2cc(-c3ccc(CN4CCCC4)cc3)nn2)cc1`, the half-maximal inhibitory concentration (IC50) (usually the concentration that gives 50% inhibition) in test [1] worked out at 280 nM.
On to `Cc1nc2ccccc2n1Cc1ccc(C(=O)NO)cc1F`, for which the half-inhibitory concentration (IC50) at Histone deacetylase 1 came to 9 µM; on Histone deacetylase 9, 70 nM.
